Laboratory results taken from patent EP0701444B1, “METHODS AND COMPOSITIONS FOR INDUCING SLEEP” (Purdue Pharma Ltd., priority 1993, dated 1994).
Entries after “also recorded” stand apart in the source; their conditions may differ. Read-outs that look alike come from different tables or passages of the source.

Tests used:
[1] = biological target: steroid site on the GABAA receptor-chloride channel complex; assay: [35S]TBPS binding assay; parameters: species or system Male Sprague-Dawley rats; conditions: inhibition of [35S]TBPS (2 nM) binding, rat cerebral cortex P2 membranes, 5 µM GABA, 90 minute incubation at 22°C
Protocol: TBPS binding assays were conducted according to the following procedures, which are described in Gee, K.W.; Lawrence, L.J.; and Yamamura, H. I., "Modulation of the Chloride Ionophore by Benzodiazepine Receptor Ligands Influence of Gamma-Aminobutyric Acid and Ligand Efficacy," Molecular Pharmacology, 30:218, 1986. Male Sprague-Dawley rats (200-250g) were anesthetized with carbon dioxide and decapitated. The rats' brains were removed and the cerebral cortices were dissected and homogenized in 10 volumes of 0.32 M sucrose. Tissue was centrifuged at 1000 x g for 10 minutes and the resultant supernatant was centrifuged at 9,000 g for 20 minutes. The resultant pellet was resuspended in 10 volumes of 200 mM NaCl/50 mM Na-K phosphate pH 7.4 buffer (binding buffer) and then centrifuged at 9,000 x g for 10 minutes. This washing procedure was repeated twice and the final P2 pellet was resuspended in the binding buffer. For the binding assay, [^35S] TBPS (2 nM) was co-incubated in binding buffer with P2 membranes and 5 µM GABA and either 1) no additions to measure total binding; 2) 2 µM unlabeled TPBS to measure nonspecific binding; 3) the neurosteroid ranging in concentration from 1 Nm to 10µM. Following a 90 minute incubation at 22°C, the suspension was filtered and the bound radioactivity was determined by liquid scintillation counting. […] A lower IC50 indicates higher affinity for the steroid site on the GABAA receptor-chloride channel complex. Table 1 gives the IC50 values of representative steroids used in the present invention.

rats = assay: Rat sleep-wake bioassay (EEG, EMG, locomotor activity, body temperature); type: in vivo, Wistar rats; conditions: for reduction in locomotor activity (LMA) over time: compared to Triazolam and Zolpidem; for LMA versus vehicle control: administered at CT-5, first hour after treatment
Protocol: Rat preparation, monitoring, and analysis of the data was conducted as described below. […] Body temperature and locomotor activity were monitored via a miniature transmitter (Minimitter) surgically placed in the abdomen. The cranial implant consisted of stainless steel screws (2 frontal [+3.9 AP form bregma, ±2.0 ML] and two occipital [-6.4 AP, ±5.5 ML]) for EEG recording. Two Teflon-coated steel wires were positioned under the nuchal trapezoid muscles for EMG recording. All leads were soldered to a miniature connector prior to surgery, and chemically sterilized in Glutarex (3M Co.). The implant assembly was affixed to the skull with dental acrylic. A minimum of three weeks was allowed for recovery.
Each rat was permanently housed in its own individual recording cage located within separate, ventilated compartments of custom-designed stainless steel cabinets. Each Nalgene microisolator cage, which is an individual recording cage, was enhanced with a filter-top riser and swivel-commutator. Food and water were available ad libitum. […] Animals were undisturbed for three days both before and after treatments. In practice, animals were undisturbed during the weekend. Treatments were administered on Monday evening or Tuesday morning, and the animals were again left undisturbed until Friday, when cages were cleaned and the data copied off the computers.
The computers monitored the EEG, EMG, body temperature and non-specific locomotor activity (LMA) via telemetry, and drinking activity from 48 rats simultaneously. The computer classified the arousal state every 10 seconds using pattern-matching algorithms which included behavior-dependent contextual rules. Drinking and LMA were recorded every 10 seconds, while body temperature was recorded every minute.
Therefore, time of treatment is important. By administering the drug at CT-18, which is the peak of the rat's activity dominated period, the natural tendency for the rats to sleep at lights on ([…] clock time or Circadian Time, CT-0) cannot mask the hypnotic activity of the drug. By administering the drug at CT-5 when the propensity for REM sleep is greatest, the drug's effect on REM sleep can be measured more accurately. The activity dominated period begins when the lights are turned off at CT-12 or 15:00 clock time on the Figures.
The drugs and controls were injected intraperitoneally or administered orally in a volume of 1 ml/kg or […], respectively, under dim red illumination for the CT-18 studies or under regular light for the CT-5 studies.
A matched control group, N=20, was selected from a pool of 60 available control candidates. These matched control groups were constructed as follows.

[2] = administered at CT-18, first few hours after administration

## CC(=O)[C@H]1CC[C@H]2[C@@H]3CC[C@@H]4C[C@H](O)CC[C@]4(C)[C@H]3CC[C@]12C [3α-hydroxy-5β-pregnan-20-one]
[1]
  IC50: 25 nM
rats
  body temperature: tends not to affect body temperature
  duration of uninterrupted NREM sleep (sleep bout length): strong increase
  rebound insomnia / rebound wakefulness / rebound effects: not producing rebound wakefulness
rats; 10 mg/kg
  reduction in locomotor activity (LMA) over time: no reduction
rats; 30 mg/kg
  reduction in locomotor activity (LMA) over time: moderately smaller reduction
rats; CT-5 or CT-18, any dose
  rebound reduction of NREM sleep: no rebound reduction of NREM sleep
rats; administered at CT-5 or CT-18, listed as Pregnanolone
  NREM sleep: potent at both CT-5 and CT-18; also recorded: potent NREM-promoting effect
rats; administered at CT-5 or CT-18, listed as pregnanolone
  NREM sleep: effective in promoting NREM sleep
rats; listed as Pregnanolone
  REM sleep: slight REM-interference
rats; listed as pregnanolone
  REM sleep: lack an inhibitory effect on REM sleep

## COCC(=O)[C@H]1CC[C@H]2[C@@H]3CC[C@@H]4C[C@@](O)(C(F)(F)F)CC[C@@H]4[C@H]3CC[C@]12C [3α-hydroxy-21-methoxy-3β-trifluoromethyl-5β-19-nor-pregnan-20-one]
[1]
  IC50: 252 nM

## CC/C=C1/CC[C@H]2[C@@H]3CC[C@@H]4C[C@H](O)CC[C@]4(C)[C@H]3CC[C@]12C [3α-hydroxy-21-methyl-5β-pregnan-17(20)(Z)-ene]
[1]
  IC50: 217 nM

## CCC(=O)[C@H]1CC[C@H]2[C@@H]3CC[C@@H]4C[C@H](O)CC[C@]4(C)[C@H]3CC[C@]12C [3α-hydroxy-21-methyl-5β-pregnan-20-one]
[1]
  IC50: 78 nM

## COC[C@@]1(O)CC[C@@]2(C)[C@H](CC[C@@H]3[C@@H]2CC[C@]2(C)[C@@H](C(C)=O)CC[C@@H]32)C1 [3α-hydroxy-30-methoxymethyl-5β-pregnan-20-one]
[1]
  IC50: 40 nM

## CCCCCC#C[C@@]1(O)CC[C@@]2(C)[C@H](CC[C@@H]3[C@@H]2CC[C@]2(C)[C@@H](C(C)=O)CC[C@@H]32)C1 [3β-(1-Heptynyl)-3α-hydroxy-5β-pregnan-20-one]
[1]
  IC50: 65 nM

## CCCCC#C[C@@]1(O)CC[C@@]2(C)[C@H](CC[C@@H]3[C@@H]2CC[C@]2(C)[C@@H](C(C)=O)CC[C@@H]32)C1 [3β-(1-Hexynyl)-3α-hydroxy-5β-pregnan-20-one]
[1]
  IC50: 44 nM

## CCCCCCC#C[C@@]1(O)CC[C@@]2(C)[C@H](CC[C@@H]3[C@@H]2CC[C@]2(C)[C@@H](C(C)=O)CC[C@@H]32)C1 [3β-(1-Octynyl)-3α-hydroxy-5β-pregnan-20-one]
[1]
  IC50: 63 nM

## CC(=O)[C@H]1CC[C@H]2[C@@H]3CC[C@@H]4C[C@@](O)(C#Cc5ccccc5O)CC[C@]4(C)[C@H]3CC[C@]12C [3β-(2'-Hydroxyphenyl)ethynyl-3α-hydroxy-5β-pregnan-20-one]
[1]
  IC50: 192 nM

## CC(=O)c1ccc(C#C[C@@]2(O)CC[C@@]3(C)[C@H](CC[C@@H]4[C@@H]3CC[C@]3(C)[C@@H](C(C)=O)CC[C@@H]43)C2)cc1 [3β-(4'-Acetylphenyl)ethynyl-3α-hydroxy-5β-pregnan-20-one]
[1]
  IC50: 14 nM

## CCOC(=O)c1ccc(C#C[C@@]2(O)CC[C@@]3(C)[C@H](CC[C@@H]4[C@@H]3CC[C@]3(C)[C@@H](C(C)=O)CC[C@@H]43)C2)cc1 [3β-(4'-Carboxyphenyl)ethynyl-3α-hydroxy-5β-pregnan-20-one ethyl ester]
[1]
  IC50: 8 nM

## CC(=O)[C@H]1CC[C@H]2[C@@H]3CC[C@H]4C[C@@](O)(CBr)CC[C@]4(C)[C@H]3CC[C@]12C [3β-(Bromomethyl)-3α-hydroxy-5α-pregnan-20-one]
[1]
  IC50: 190 nM

## C=CCC[C@@]1(O)CC[C@@]2(C)[C@@H](CC[C@@H]3[C@@H]2CC[C@]2(C)[C@@H](C(C)=O)CC[C@@H]32)C1 [3β-(But-3-enyl)-3α-hydroxy-5α-pregnan-20-one]
[1]
  IC50: 242 nM

## C=C=CC[C@@]1(O)CC[C@@]2(C)[C@@H](CC[C@@H]3[C@@H]2CC[C@]2(C)[C@@H](C(C)=O)CC[C@@H]32)C1 [3β-(Buta-2,3-dienyl)-3α-hydroxy-5α-pregnan-20-one]
[1]
  IC50: 347 nM

## CCOC[C@@]1(O)CC[C@@]2(C)[C@@H](CC[C@@H]3[C@@H]2CC[C@]2(C)[C@@H](C(C)=O)CC[C@@H]32)C1 [3β-(Ethoxymethyl)-3α-hydroxy-5α-pregnan-20-one]
[1]
  IC50: 154 nM

## CC(=O)[C@H]1CC[C@H]2[C@@H]3CC[C@@H]4C[C@@](O)(C#CCl)CC[C@]4(C)[C@H]3CC[C@]12C [3β-(chloroethynyl)-3α-hydroxy-5β-pregnan-20-one]
[1]
  IC50: 26 nM

## C#C[C@@]1(O)CC[C@H]2[C@H](CC[C@@H]3[C@@H]2CC[C@]2(C)/C(=C\C)CC[C@@H]32)C1 [3β-Ethynyl-3α-hydroxy-5β-19-nor-pregn-17(z)-ene]
[1]
  IC50: 460 nM

## C#C[C@@]1(O)CC[C@H]2[C@H](CC[C@@H]3[C@@H]2CC[C@]2(C)[C@@H](C(C)=O)CC[C@@H]32)C1 [3β-Ethynyl-3α-hydroxy-19-nor-5β-pregnan-20-one]
[1]
  IC50: 44 nM

## COc1ccc(C#C[C@@]2(O)CC[C@@]3(C)[C@H](CC[C@@H]4[C@@H]3CC[C@]3(C)[C@@H](C(C)=O)CC[C@@H]43)C2)cc1OC [3β-[(3',4'-Dimethoxyphenyl)ethynyl] -3α-hydroxy-5/3-pregnan-20-one]
[1]
  IC50: 283 nM

## CC(=O)[C@H]1CC[C@H]2[C@@H]3CC[C@H]4C[C@@](O)(CN=[N+]=[N-])CC[C@]4(C)[C@H]3CC[C@]12C [3β-azidomethyl-3α-hydroxy-5α-pregnan-20-one]
[1]
  IC50: 34 nM

## CC(=O)[C@H]1CC[C@H]2[C@@H]3CC[C@H]4C[C@@](O)(CC#N)CC[C@]4(C)[C@H]3CC[C@]12C [3β-cyanomethyl-3α-hydroxy-5α-pregnan-20-one]
[1]
  IC50: 439 nM

## C#C[C@@]1(O)CC[C@@]2(C)[C@@H](CC[C@@H]3[C@@H]2CC[C@]2(C)[C@@H](C(C)=O)CC[C@@H]32)C1 [3β-ethynyl-3α-hydroxy-5α-pregnan-20-one, 3β-Ethynyl-3α-hydroxy-5α-pregnan-20-one]
rats
  REM sleep: slight REM-interference
rats; administered at CT-5 or CT-18
  NREM sleep: potent NREM-promoting effect

## Cc1cccc([C@H](C)c2cnc[nH]2)c1C [Dexmedetomidine, reference compound]
rats
  REM sleep: strongly interfered with REM sleep
  rebound insomnia / rebound wakefulness / rebound effects: strong rebound effects

## Cc1nnc2n1-c1ccc(Cl)cc1C(c1ccccc1Cl)=NC2 [Triazolam, reference compound]
rats
  LMA after the hypnotic action has worn off: reduced body temperature and locomotor activity
  body temperature: affect body temperature; also recorded: reduced body temperature
  LMA versus vehicle control: reduced LMA below vehicle control levels
rats; administered at CT-5
  NREM sleep / hypnotic effect: no hypnotic effect
rats; [2]
  REM sleep: reduced REM sleep

## Cc1ccc(-c2nc3ccc(C)cn3c2CC(=O)N(C)C)cc1 [Zolpidem, reference compound]
rats
  LMA after the hypnotic action has worn off: continues to depress LMA; also recorded: reduced body temperature and locomotor activity
  REM sleep: strongly interfered with REM sleep
  body temperature: affect body temperature; also recorded: reduced body temperature
  rebound insomnia / rebound wakefulness / rebound effects: did not produce rebound insomnia
  LMA versus vehicle control: reduced LMA below vehicle control levels
rats; administered at CT-5
  NREM sleep / hypnotic effect: unable to effectively induce NREM sleep
  REM sleep: interferes with REM sleep
rats; [2]
  REM sleep: reduced REM sleep
